From article PMC6934184, “Selective DNA-PKcs inhibition extends the therapeutic index of localized radiotherapy and chemotherapy” (The Journal of Clinical Investigation, 2019)

Molecular target: T1, MARK3 (Homo sapiens, UniProt P27448)
T1 construct: purchased Thermo Fisher Scientific (Life Technologies) SelectScreen
Assay: SelectScreen Z'LYTE
Assay type: biochemical
In short: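 NU5455 was profiled across the SelectScreen Broad panel of kinase activity and binding assays. Z'LYTE reactions such as CSF1R ran at apparent Km ATP, while the Adapta CAMK1 assay used ATP listed as 10. Values are given as percent.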

T1 sequence (P27448 whole entry): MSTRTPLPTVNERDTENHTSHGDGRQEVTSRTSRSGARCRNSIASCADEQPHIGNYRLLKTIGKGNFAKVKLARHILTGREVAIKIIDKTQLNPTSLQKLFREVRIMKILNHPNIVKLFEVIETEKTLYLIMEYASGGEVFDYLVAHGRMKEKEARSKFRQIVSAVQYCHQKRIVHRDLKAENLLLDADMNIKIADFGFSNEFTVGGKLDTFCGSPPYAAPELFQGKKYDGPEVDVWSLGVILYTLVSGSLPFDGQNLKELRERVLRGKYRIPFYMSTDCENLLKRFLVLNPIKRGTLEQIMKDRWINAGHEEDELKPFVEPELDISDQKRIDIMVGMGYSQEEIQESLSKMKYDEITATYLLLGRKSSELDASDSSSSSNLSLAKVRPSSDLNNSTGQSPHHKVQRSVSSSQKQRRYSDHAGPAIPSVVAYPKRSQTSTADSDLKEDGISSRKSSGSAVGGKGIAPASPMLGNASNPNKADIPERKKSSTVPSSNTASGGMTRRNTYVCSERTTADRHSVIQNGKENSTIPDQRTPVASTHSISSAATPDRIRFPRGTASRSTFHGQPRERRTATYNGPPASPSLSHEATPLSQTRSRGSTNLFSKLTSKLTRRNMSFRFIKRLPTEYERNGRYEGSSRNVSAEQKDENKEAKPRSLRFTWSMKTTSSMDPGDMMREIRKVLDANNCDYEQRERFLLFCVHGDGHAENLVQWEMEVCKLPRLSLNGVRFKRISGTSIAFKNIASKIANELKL

## CN(C(=O)CN1CCOCC1)c1ccc2sc3c(-c4cccc5c(=O)cc(N6CC7CCC(C6)O7)oc45)cccc3c2c1 [NU5455]
  inhibition at 1 µM: 11.4%
